These results are taken from patent US5677291A, “Method of lowering serum cholesterol levels with 2,6-di-alkyl-4-silyl-phenols” (Hoechst Marion Roussel, Inc., priority 1996, dated 1997).

Common to all, as to assay type: in vivo, New Zealand White rabbit
The subject of data set [1] is 0.2% Cholesterol-Fed New Zealand White Rabbits. Description: Reduction of cholesterol levels of 0.2% cholesterol-fed rabbits by concurrent administration of 0.4% Compound A (Example 19). Conditions: for Cholesterol: plasma or serum, n = 6. As to the method:
NZW rabbits (female, aged 3-4 months, weighing less than 3 Kg), six in each group, were fed a control diet of 0.2% cholesterol (100 g rabbit chow daily containing 0.2 g cholesterol) or a diet of 0.2% cholesterol/0.4% drag (100 g rabbit chow daily containing 0.2 g cholesterol and 0.4 g Compound A). After 56 days, the rabbits were sacrificed by intravenous injection of pentobarbital. Plasma or serum was collected and cholesterol levels were determined using the enzymatic method of Mao, et at., Clin. Chem. (1983) 29: 1890-1897.

Data set [2] concerns Normolipidemic New Zealand Rabbits. Description: Reduction in cholesterol levels of normolipidemic rabbits by concurrent administration of 0.5% Compound A (Example 21). Conditions: normal diet with 0.5% drug; for Cholesterol: serum, n = 4. As to the method: New Zealand White rabbits (female, aged 3-4 months, weighing less than 3 kg), four in each group, were fed a normal diet (100 g rabbit chow daily) or a diet of 0.5% drug (100 g rabbit chow daily containing 0.5 g Compound A). Serum was collected and cholesterol levels were determined according to the method of Mao, et at., Clin. Chem. (1983) 29:1890-1897.

Data set [3] relates to 1% Cholesterol-Fed New Zealand White Rabbits. Description: Reduction of cholesterol levels of 1% cholesterol-fed rabbits by concurrent administration of 0.5% Compound A (Example 18). Conditions: 1% cholesterol/0.5% drug diet; for Cholesterol: plasma or serum, n = 6. How it is done: New Zealand Whim (NZW) rabbits (female, aged 3-4 months, weighing less than 3 kg) six in each group, were fed a control diet of 1% cholesterol (100 g rabbit chow daily containing 1 g cholesterol) or a diet of 1% cholesterol/0.5% drag (100 g rabbit chow daily containing 1 g cholesterol and 0.5 g Compound A). After 56 days, the rabbits were sacrificed by intravenous injection of pentobarbital. Plasma or serum was collected and cholesterol levels were determined using the enzymatic method of Mao, et at., Clin. Chem. (1983) 29:1890-1897.

Data set [4] has as its system 0.2% Cholesterol-Fed New Zealand White Rabbits. The experiment in a line: Serum total, LDL and HDL cholesterol and triglycerides in 0.2% cholesterol-fed rabbits, concurrent 0.4% drug (Example 20). Particulars: 0.2% cholesterol/0.4% drug diet; for cholesterol (total) % Control / HDL cholesterol % Control / LDL cholesterol % Control: % of control; for HDL cholesterol % Control / LDL cholesterol % Control: serum, gel filtration HPLC. Further details: triglycerides: reference not given here. An excerpt:
(§1) NZW rabbits (female, aged 3-4 months, weighing less than 3 Kg), six in each group, were fed a control diet of 0.2% cholesterol (100 g rabbit chow daily containing 0.2 g cholesterol) or a diet of 0.2% cholesterol/0.4% drug (100 g rabbit chow daily containing 0.2 g cholesterol and 0.4 g of drag). For Compound A, the rabbits were sacrificed by intravenous injection of pentobarbital after 56 days. For Compound G, K, E and H, the rabbits were sacrificed by intravenous injection of pentobarbital after 7 days. Plasma or serum was collected and cholesterol levels were determined using the enzymatic method of Mao, et at., Clin. Chem. (1983) 29:1890-1897. Liver weight and body weights were determined. Serum HDL and LDL cholesterol levels were determined using gel filtration HPLC modified from Kieft, K. A., et at., J. Lipid Res., 32:859-861 (1991), using Roche enzymatic cholesterol reagents. Triglyceride levels were determined by Cobas Automated Analyzer using Roche enzymatic reagents.

The test system is the same in data set [5]. Description: Liver weight / body weight ratio in 0.2% cholesterol-fed rabbits, concurrent 0.4% drug (Example 20). Particulars: 0.2% cholesterol/0.4% drug diet.
From the text: as §1

The compound `CC(C)(C)c1cc(SC[Si](C)(C)c2ccccc2)cc(C(C)(C)C)c1O` [Compound A, 2,6-Di-t-butyl-4[(dimethylphenylsilyl)methylthio]phenol] returned a reduction of cholesterol in data set [1] (56 days, 0.2% cholesterol/0.4% drug diet) of 64%. Besides, the “cholesterol lowering (in words)” value in data set [1] (administration for 56 days, 0.2% cholesterol-fed rabbits) is “significant cholesterol lowering”. In addition, the Cholesterol in data set [1] (day 0, 0.2% cholesterol/0.4% drug diet) was 66 ± 8 mg/dL; in data set [1] (day 7, 0.2% cholesterol/0.4% drug diet), 154 ± 17 mg/dL; in data set [1] (day 14, 0.2% cholesterol/0.4% drug diet) it was 223 ± 32 mg/dL; in data set [1] (day 28, 0.2% cholesterol/0.4% drug diet) it was 291 ± 59 mg/dL; in data set [1] (day 42, 0.2% cholesterol/0.4% drug diet), 357 ± 89 mg/dL; in data set [1] (day 56, 0.2% cholesterol/0.4% drug diet), 337 ± 100 mg/dL. The Cholesterol was determined as 43.5 ± 4 mg/dL in data set [2] (day 0); 69.7 ± 6 mg/dL in data set [2] (day 8); 54.8 ± 8 mg/dL in data set [2] (day 14); 58.3 ± 6 mg/dL in data set [2] (day 23); 59 ± 8 mg/dL in data set [3] (day 0); 684 ± 99 mg/dL in data set [3] (day 14). Further, the Cholesterol in data set [3] (day 28) came out at 954 ± 126 mg/dL; in data set [3] (day 42) it was 1118 ± 164 mg/dL; in data set [3] (day 56), 1035 ± 152 mg/dL. Moreover, in data set [2] (day 23, compared to control rabbits), the “level of cholesterol significantly reduced by” value was “about 29%”. Further, the “reduction of serum cholesterol” value in data set [3] (day 56, vs control) amounted to 57%. The compound further returned a triglycerides in data set [4] (56 days) of 366%. Also, the “cholesterol (total) % Control” value in data set [4] (56 days) came out at 52%. For the same compound, in data set [4] (56 days), the “HDL cholesterol % Control” value was determined as 75%. Further, the “LDL cholesterol % Control” value in data set [4] (56 days) worked out at 42%. For the same compound, the “liver wt/body wt ratio” value in data set [5] (56 days) is on record as 120%.
As to `CC(C)(C)c1cc(OC[Si](C)(C)c2ccccc2)cc(C(C)(C)C)c1O` [Compound G], in data set [4] (7 days), the triglycerides is given as 104%, the “cholesterol (total) % Control” value is reported as 72%, the “HDL cholesterol % Control” value amounted to 81% and the “LDL cholesterol % Control” value was found to be 69%. Also, in data set [5] (7 days), the “liver wt/body wt ratio” value was 104%.
For `COc1ccc([Si](C)(C)COc2cc(C(C)(C)C)c(O)c(C(C)(C)C)c2)cc1` [Compound H, 2,6-Di-t-butyl-4[(dimethyl-4-methoxyphenylsilyl)methyloxy]phenol], in data set [4] (7 days), the triglycerides was found to be 73%, the “cholesterol (total) % Control” value was determined as 54%, the “HDL cholesterol % Control” value came to 123% and the “LDL cholesterol % Control” value is reported as 66%. For the same compound, the “liver wt/body wt ratio” value in data set [5] (7 days) was determined as 110%.
On to `COc1ccccc1[Si](C)(C)COc1cc(C(C)(C)C)c(O)c(C(C)(C)C)c1` [Compound K, 2,6-Di-t-butyl-4-[(dimethy 1-2-methoxyphenylsilyl)methyloxy]phenol], for which, in data set [4] (7 days), the triglycerides was 131%, the “cholesterol (total) % Control” value is on record as 77%, the “HDL cholesterol % Control” value was determined as 217% and the “LDL cholesterol % Control” value is on record as 61%. Moreover, the “liver wt/body wt ratio” value in data set [5] (7 days) is 90%.
On to `CC(C)(C)c1cc(OC[Si](C)(C)c2ccc(Cl)cc2)cc(C(C)(C)C)c1O` [E, 2,6 Di-t-butyl-4[(4-chlorophenyldimethylsilyl)methyloxy]phenol], for which, in data set [4] (7 days), the triglycerides came to 82%, the “cholesterol (total) % Control” value came to 87%, the “HDL cholesterol % Control” value was found to be 109% and the “LDL cholesterol % Control” value turned out to be 89%. Besides, the “liver wt/body wt ratio” value in data set [5] (7 days) stood at 93%.
